The assay concerns the target T1, BMPR1B (ALK6) (Homo sapiens, UniProt O00238).
T1 construct: purchased Thermo Fisher Scientific (Life Technologies) SelectScreen
Put plainly: SelectScreen LanthaScreen. In kind it is binding. As to conditions: read-out: % displacement. The essentials:
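NU5455 was profiled across the SelectScreen Broad panel of kinase activity and binding assays. Z'LYTE reactions such as CSF1R ran at apparent Km ATP, while the Adapta CAMK1 assay used ATP listed as 10. Values are given as percent.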
For orientation: TR-FRET usually uses a lanthanide donor and a delayed reading to cut background.

T1 sequence (O00238 14-502): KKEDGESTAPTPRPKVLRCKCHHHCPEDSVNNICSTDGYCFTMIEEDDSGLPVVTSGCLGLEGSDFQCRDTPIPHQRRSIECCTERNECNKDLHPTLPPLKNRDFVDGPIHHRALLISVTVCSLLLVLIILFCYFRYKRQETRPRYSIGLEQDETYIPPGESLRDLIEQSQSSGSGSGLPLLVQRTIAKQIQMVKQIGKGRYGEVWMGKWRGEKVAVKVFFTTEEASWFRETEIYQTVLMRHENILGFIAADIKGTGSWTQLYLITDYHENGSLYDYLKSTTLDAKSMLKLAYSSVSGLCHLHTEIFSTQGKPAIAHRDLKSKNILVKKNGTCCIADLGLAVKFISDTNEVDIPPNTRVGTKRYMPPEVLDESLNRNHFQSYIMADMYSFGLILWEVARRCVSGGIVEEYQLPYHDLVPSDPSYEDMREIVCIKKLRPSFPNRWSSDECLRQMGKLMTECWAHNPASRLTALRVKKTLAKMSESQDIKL

`CN(C(=O)CN1CCOCC1)c1ccc2sc3c(-c4cccc5c(=O)cc(N6CC7CCC(C6)O7)oc45)cccc3c2c1` [NU5455]: the inhibition at 1 µM worked out at 14.5%.
